According to the supplement of paper PMC13380429:

Tests used:
Conditions in all cases: 72 h
Caco-2 [1] = assay: drug sensitivity score (DSS) for viability; higher = more toxic; extreme values may be limits of the assay
HepG2 [2] = assay: as above
Vero E6 [3] = assay: as above
Calu-3 [4] = assay: as above
U2OS [5] = assay: as above
Caco-2 [6] = assay: relative viability EC50 (midpoint between 100% and the lowest measured viability); higher = less toxic
HepG2 [7] = assay: as above
Vero E6 [8] = assay: as above
Calu-3 [9] = assay: as above
U2OS [10] = assay: as above
Caco-2 [11] = assay: cell viability relative to DMSO; higher = less toxic
HepG2 [12] = assay: as above
Vero E6 [13] = assay: as above
Calu-3 [14] = assay: as above
U2OS [15] = assay: as above

SMILES | drug sensitivity score (Caco-2 [1]) | drug sensitivity score (HepG2 [2]) | drug sensitivity score (Vero E6 [3]) | drug sensitivity score (Calu-3 [4]) | drug sensitivity score (U2OS [5]) | relative viability EC50 (Caco-2 [6]) | relative viability EC50 (HepG2 [7]) | relative viability EC50 (Vero E6 [8]) | relative viability EC50 (Calu-3 [9]) | relative viability EC50 (U2OS [10]) | cell viability (Caco-2 [11]; 1 nM) | cell viability (Caco-2 [11]; 10 nM) | cell viability (Caco-2 [11]; 100 nM) | cell viability (Caco-2 [11]; 1000 nM) | cell viability (Caco-2 [11]; 10000 nM) | cell viability (HepG2 [12]; 1 nM) | cell viability (HepG2 [12]; 10 nM) | cell viability (HepG2 [12]; 100 nM) | cell viability (HepG2 [12]; 1000 nM) | cell viability (HepG2 [12]; 10000 nM) | cell viability (Vero E6 [13]; 1 nM) | cell viability (Vero E6 [13]; 10 nM) | cell viability (Vero E6 [13]; 100 nM) | cell viability (Vero E6 [13]; 1000 nM) | cell viability (Vero E6 [13]; 10000 nM) | cell viability (Calu-3 [14]; 1 nM) | cell viability (Calu-3 [14]; 10 nM) | cell viability (Calu-3 [14]; 100 nM) | cell viability (Calu-3 [14]; 1000 nM) | cell viability (Calu-3 [14]; 10000 nM) | cell viability (U2OS [15]; 1 nM) | cell viability (U2OS [15]; 10 nM) | cell viability (U2OS [15]; 100 nM) | cell viability (U2OS [15]; 1000 nM) | cell viability (U2OS [15]; 10000 nM)
NCCCCCc1c[nH]cn1 [impentamine] | 0 | 0 | 0 | 0 | 0 | > 10 µM | > 10 µM | > 10 µM | > 10 µM | > 10 µM | 98% | 97.9% | 91.6% | 97% | 91.3% | 96.6% | 93.9% | 103% | 97.5% | 101% | 96.6% | 99.3% | 99.9% | 93.5% | 96.9% | 98.3% | 99.4% | 100% | 98.5% | 91.9% | 95.7% | 102% | 96.6% | 98.3% | 95.4%
CC(=O)OCC(=O)[C@@]12OC3(CCCC3)O[C@@H]1C[C@H]1[C@@H]3CCC4=CC(=O)C=C[C@]4(C)[C@@]3(F)[C@@H](O)C[C@@]12C [amcinonide] | 0 | 0 | 0 | 0.3 | 0 | > 10 µM | > 10 µM | > 10 µM | > 10 µM | > 10 µM | 104% | 105% | 94.6% | 107% | 104% | 108% | 97.1% | 98.2% | 91.8% | 99.8% | 102% | 96.2% | 99.6% | 95.6% | 95.4% | 101% | 103% | 93.9% | 89.3% | 97% | 101% | 101% | 92.6% | 97.2% | 91.5%
CN(CCOc1ccc(C[C@H](Nc2ccccc2C(=O)c2ccccc2)C(=O)O)cc1)c1ccccn1 [GW-1929] | 0.2 | 0 | 0 | 0 | 0 | > 10 µM | > 10 µM | > 10 µM | > 10 µM | > 10 µM | 95.1% | 96.3% | 107% | 99.5% | 85.5% | 92.2% | 104% | 81.5% | 85.8% | 106% | 92% | 90.2% | 80.3% | 82.3% | 90.2% | 111% | 112% | 120% | 116% | 95.6% | 98.3% | 96.1% | 99.3% | 98.7% | 98.2%
CSc1ccc([C@H]2CN3CCC[C@H]3c3ccccc32)cc1 (racemic) [McN-5652-(+/-)] | 0 | 0 | 0 | 0 | 0 | > 10 µM | > 10 µM | > 10 µM | > 10 µM | > 10 µM | 92.2% | 100% | 96.1% | 103% | 98.7% | 102% | 89.9% | 98.5% | 90.3% | 105% | 99.6% | 102% | 102% | 96.3% | 104% | 102% | 101% | 106% | 84.9% | 105% | 97.8% | 105% | 96.8% | 105% | 102%
CN(C)C/C=C(/c1ccc(Br)cc1)c1cccnc1 [zimelidine] | 0 | 0 | 0 | 0 | 0 | > 10 µM | > 10 µM | > 10 µM | > 10 µM | > 10 µM | 100% | 98.9% | 90.6% | 93.6% | 101% | 103% | 97.8% | 102% | 94.2% | 102% | 101% | 100% | 102% | 96.5% | 100% | 99.7% | 107% | 96.6% | 99.2% | 93% | 89.6% | 97.5% | 91.3% | 100% | 90.3%
COc1ccccc1OCC(O)CO (stereo not given) [guaifenesin] | 0 | 0 | 0 | 0 | 0 | > 10 µM | > 10 µM | > 10 µM | > 10 µM | > 10 µM | 102% | 84.5% | 101% | 91.2% | 99.5% | 100% | 99.8% | 98.7% | 103% | 94.7% | 105% | 106% | 105% | 105% | 99.5% | 99.2% | 105% | 101% | 108% | 95.2% | 105% | 98.8% | 97% | 97.2% | 100%
Cc1c(C)c2c(c(C)c1O)CC[C@@](C)(CCC[C@H](C)CCC[C@H](C)CCCC(C)C)O2 [vitamin-E] | 0 | 0 | 0 | 0 | 0 | > 10 µM | > 10 µM | > 10 µM | > 10 µM | > 10 µM | 101% | 89.8% | 97.1% | 94.8% | 98.5% | 93.6% | 100% | 91% | 106% | 108% | 86.5% | 99.4% | 88.5% | 101% | 103% | 98.9% | 82.6% | 102% | 99.3% | 91.7% | 99.9% | 95.1% | 103% | 94.9% | 97.2%
Clc1ccc(C2=CCC[C@H]3CC[C@@H]2N3)cn1 [UB-165] | 0 | 0 | 0 | 0 | 0 | > 10 µM | > 10 µM | > 10 µM | > 10 µM | > 10 µM | 92.2% | 97.7% | 96.8% | 93% | 102% | 98.2% | 97% | 93.1% | 95.5% | 102% | 101% | 102% | 95.6% | 100% | 103% | 108% | 107% | 91.3% | 93.2% | 100% | 101% | 107% | 97.1% | 97.5% | 102%
CCN[C@H]1CN(CCCOC)S(=O)(=O)c2sc(S(N)(=O)=O)cc21 [brinzolamide] | 0 | 0 | 0 | 0 | 0 | > 10 µM | > 10 µM | > 10 µM | > 10 µM | > 10 µM | 89.1% | 95.2% | 99.3% | 104% | 106% | 100% | 118% | 101% | 110% | 112% | 94.4% | 99.7% | 96.2% | 85.9% | 102% | 96.2% | 91.8% | 101% | 112% | 102% | 96.6% | 95.4% | 102% | 106% | 99.9%
CCNC(=O)CCC/C=C\C[C@@H]1[C@@H](/C=C/[C@@H](O)CCc2ccccc2)[C@H](O)C[C@@H]1O [bimatoprost] | 0 | 0 | 0 | 0 | 0 | > 10 µM | > 10 µM | > 10 µM | > 10 µM | > 10 µM | 97.5% | 89.8% | 106% | 92.2% | 101% | 88.6% | 93% | 95.1% | 107% | 105% | 97.7% | 105% | 96.1% | 100% | 106% | 113% | 97.6% | 101% | 100% | 101% | 102% | 93.3% | 103% | 96.4% | 107%
CCN(CC)CCOC(=O)C1(c2ccc([N+](=O)[O-])cc2)CCCC1 [nitrocaramiphen] | 0 | 0 | 0 | 0 | 0 | > 10 µM | > 10 µM | > 10 µM | > 10 µM | > 10 µM | 103% | 90.1% | 98.3% | 106% | 101% | 107% | 97.2% | 103% | 108% | 102% | 104% | 92.9% | 97.2% | 102% | 106% | 90% | 95.7% | 96.5% | 94% | 98.2% | 95.5% | 102% | 95.4% | 94.8% | 98.5%
Cc1ccc(-c2cn3c4c(sc3n2)CCCC4)cc1 [pifithrin-cyclic] | 0 | 0 | 0 | 0 | 0 | > 10 µM | > 10 µM | > 10 µM | > 10 µM | > 10 µM | 104% | 93% | 91.2% | 105% | 92.9% | 105% | 99.1% | 105% | 108% | 91.7% | 119% | 96.5% | 109% | 102% | 97.1% | 98.3% | 105% | 100% | 109% | 107% | 102% | 101% | 101% | 102% | 98.5%
CCC(Cc1c(I)cc(I)c(N)c1I)C(=O)O (stereo not given) [iopanic-acid] | 0 | 0 | 0 | 0 | 0 | > 10 µM | > 10 µM | > 10 µM | > 10 µM | > 10 µM | 110% | 107% | 98.8% | 85.8% | 113% | 106% | 112% | 100% | 110% | 99% | 109% | 103% | 104% | 102% | 93% | 101% | 91.4% | 96.4% | 102% | 108% | 99.7% | 95.6% | 97.9% | 96.7% | 97.1%
C=CCN1CC[C@]23c4c5ccc(O)c4O[C@H]2[C@@H](OCCOCCOCCOCCOCCOCCOCCOC)CC[C@@]3(O)[C@H]1C5 [naloxegol] | 0 | 0 | 0 | 0 | 0 | > 10 µM | > 10 µM | > 10 µM | > 10 µM | > 10 µM | 107% | 97.9% | 98.5% | 104% | 105% | 99.8% | 94% | 97.8% | 93.6% | 107% | 101% | 96.7% | 103% | 97.5% | 105% | 97.1% | 107% | 91.7% | 101% | 88.7% | 93.9% | 99.1% | 95% | 98.8% | 96.5%
